From BindingDB's records for patent US12565504 (Biogen Ma, 2026)

target: T1, Protein O-GlcNAcase (Homo sapiens, UniProt O60502); experiment: OGA Enzyme Inhibition Biochemical Assay
T1 sequence (O60502 whole entry): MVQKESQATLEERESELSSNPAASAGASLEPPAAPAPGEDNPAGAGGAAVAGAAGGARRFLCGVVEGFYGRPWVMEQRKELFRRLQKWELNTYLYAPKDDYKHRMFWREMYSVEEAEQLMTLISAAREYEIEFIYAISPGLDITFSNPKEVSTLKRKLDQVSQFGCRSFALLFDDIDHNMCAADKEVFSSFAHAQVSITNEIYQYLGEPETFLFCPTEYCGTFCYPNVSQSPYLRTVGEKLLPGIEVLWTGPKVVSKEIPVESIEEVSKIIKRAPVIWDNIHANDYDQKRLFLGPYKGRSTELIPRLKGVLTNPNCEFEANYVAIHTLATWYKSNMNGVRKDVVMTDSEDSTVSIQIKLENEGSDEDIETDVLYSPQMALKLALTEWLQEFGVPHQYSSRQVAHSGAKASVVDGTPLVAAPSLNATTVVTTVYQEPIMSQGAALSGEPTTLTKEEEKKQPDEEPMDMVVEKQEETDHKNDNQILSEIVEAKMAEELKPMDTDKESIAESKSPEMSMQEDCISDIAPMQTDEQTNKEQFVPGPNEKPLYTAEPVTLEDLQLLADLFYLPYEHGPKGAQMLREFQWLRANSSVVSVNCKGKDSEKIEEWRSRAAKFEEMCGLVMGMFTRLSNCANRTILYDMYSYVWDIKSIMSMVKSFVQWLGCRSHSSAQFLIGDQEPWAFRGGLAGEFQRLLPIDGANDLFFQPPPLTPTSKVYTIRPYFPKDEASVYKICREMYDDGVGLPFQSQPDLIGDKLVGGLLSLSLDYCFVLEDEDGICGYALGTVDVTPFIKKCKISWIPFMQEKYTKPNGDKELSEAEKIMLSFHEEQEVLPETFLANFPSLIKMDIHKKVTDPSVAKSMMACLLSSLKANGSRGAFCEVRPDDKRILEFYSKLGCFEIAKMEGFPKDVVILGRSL
Method: Recombinant full length human OGA enzyme was purchased from Origene. 4-MUGlcNAc substrate was purchased from Sigma. All other reagents were purchased from Sigma or Fisher. Assay buffer consists of the McIlvaine buffer system, pH 6.4 (0.2M Na2HPO4 mixed with 0.1M citric acid) and 0.01% BSA. […] Reactions were incubated for 90 minutes at room temperature and quenched with 40 μl of 3M glycine, pH 10 and read on a Perkin Elmer Envision plate reader (Ex: 355 nm/Em: 460 nm). Compounds were tested with a 10-point dose-response starting from 20 μM with a 4-fold dilution. Data was fit using GraphPad Prism using a 4-parameter fit with variable slope.

Compound | IC50 [µM]
COc1cc2c(cn1)[C@@]1(C[C@H](C)N(Cc3sc(NC(C)=O)nc3F)C1)OC2 (single isomer, unassigned) [US12565504, Example 75-b] | 0.047
COc1nccc2c1COC21C[C@H](C)N(Cc2sc(NC(C)=O)nc2F)C1 (some centres undefined) [US12565504, Example 77] | 0.004
COc1cc2c(cn1)[C@]1(C[C@H](C)N(Cc3sc(NC(C)=O)nc3F)C1)OC2 (single isomer, unassigned) [US12565504, Example 75-a] | 0.01
CC(=O)Nc1nc(F)c(CN2CC3(C[C@@H]2C)OCc2ncccc23)s1 (some centres undefined) [US12565504, Example 79] | 0.01
